In patent US20220125745A1, “PHARMACEUTICAL COMPOSITION FOR CO-ADMINISTRATION OF ACIDOSIS-INDUCING DRUG” (HAIM BIO CO., LTD., priority 2018, published 2022):
Where two headings read alike, the source gives them in different places.

Columns and labels:
[1] = system: A549 cells (cancer cells); assay: Lactate assay (luminescence) in A549 cells, candidate substance alone or combined with a substance that causes lactic acidosis; assay type: cell-based; settings: A549; for activity at 50 µM: Homo sapiens
Method: (§1) To identify the effects of administration of the candidate substances for lactic acidosis treatment as described in Example 1 in combination with the above-mentioned substances that cause lactic acidosis, A549 cells (cancer cells) or L132 cells (normal cells) were respectively seeded in 96- or 24-well plates at a concentration of 1×10^4 or 3×10^5 cells/well, and incubation was performed overnight. Administration of the candidate substance for acidosis treatment in combination with the substance that causes lactic acidosis was performed and incubation was further performed for 24 hours. For the candidate substances for acidosis treatment, each substance was administered at a uniform concentration of 50 μM; and for the substances that cause lactic acidosis, metformin was administered at 1 to 100 μM, isoniazid was administered at 1 to 500 μM, berberine was administered at 10 μM, linezolid was administered at 200 μM, and phenformin was administered at 100 μM. All substances were dissolved in dimethyl sulfoxide (DMSO, Sigma-Aldrich Corporation, St. Louis, Mo., USA), and the substances to be administered in combination were administered simultaneously. Subsequently, 50 μl of the cell culture solution obtained by being diluted with Dulbecco's Phosphate-Buffered Saline (DPBS; Wellgene, Korea), and 50 μl of the lactate assay reaction buffer (Promega, Madison, Wis., USA) were mixed and the mixture was added in a 96-well plate. Reaction was allowed to proceed at room temperature for 1 hour. Then, luminescence was measured with a spectrophotometer (Synergy HTX Multi-Reader; BioTek, Winooski, Vt., USA). At the same time, the number of cells in each sample was measured with a cell viability analysis kit (Cell Counting Kit-8; Dojindo Molecular Technologies, Inc., Kumamoto, Japan), and calculation was performed so that the lactic acid measurement value in each sample could be compared with that in the negative control for the same number of cells.

[2] = system: L132 cells (normal cells); assay: Lactate assay (luminescence) in L132 cells, candidate substance alone or combined with a substance that causes lactic acidosis; assay type: cell-based; settings: L132; for activity at 50 µM: Homo sapiens
Method: as §1

[3] = candidate 50 μM + berberine 10 μM, relative to berberine alone (PC)
[4] = candidate 50 μM + linezolid 200 μM, relative to linezolid alone (PC)
[5] = candidate 50 μM + phenformin 100 μM, relative to phenformin alone (PC)
[6] = candidate 50 μM alone, no berberine, 24 h, vs negative control, mean ± SEM, read-out: Luminescence intensity (%), Berberine (10 μM) −
[7] = candidate 50 μM alone, no linezolid, 24 h, vs negative control, mean ± SEM, read-out: Luminescence intensity (%), Linezolid (200 μM) −
[8] = candidate 50 μM alone, no phenformin, 24 h, vs negative control, mean ± SEM, read-out: Luminescence intensity (%), Phenformin (100 μM) −
[9] = candidate 50 μM alone, no berberine, 24 h, vs negative control, mean ± SEM
[10] = candidate 50 μM alone, no linezolid, 24 h, vs negative control, mean ± SEM
[11] = candidate 50 μM alone, no phenformin, 24 h, vs negative control, mean ± SEM

| SMILES | Lactic acid value vs. PC (%) [1, 3] | Lactic acid-decreasing rate vs. PC (%) [1, 3] | Lactic acid value vs. PC (%) [1, 4] | Lactic acid-decreasing rate vs. PC (%) [1, 4] | Lactic acid value vs. PC (%) [1, 5] | Lactic acid-decreasing rate vs. PC (%) [1, 5] | activity at 50 µM [1, 6] | activity at 50 µM [1, 7] | activity at 50 µM [1, 8] | activity at 50 µM [2, 6] | activity at 50 µM [2, 7] | activity at 50 µM [2, 8] | Lactic acid value vs. PC (%) [2, 3] | Lactic acid-decreasing rate vs. PC (%) [2, 3] | Lactic acid value vs. PC (%) [2, 4] | Lactic acid-decreasing rate vs. PC (%) [2, 4] | Lactic acid value vs. PC (%) [2, 5] | Lactic acid-decreasing rate vs. PC (%) [2, 5] | Luminescence intensity (%), Linezolid (200 μM) − [2, 10] | other results |
| --- | --- | --- | --- | --- | --- | --- | --- | --- | --- | --- | --- | --- | --- | --- | --- | --- | --- | --- | --- | --- |
| CCCNC(=O)NS(=O)(=O)c1ccc(Cl)cc1 [Chlorpropamide] | 90.69% | 9.31% | 86.81% | 13.19% | 94.87% | 5.13% | 97 ± 1.24% | 97 ± 1.24% | 97 ± 1.24% | 92.4 ± 1.05% | 92.4 ± 1.05% | 92.4 ± 1.05% | 102.38% | −2.38% | 90.11% | 9.89% | 96.68% | 3.32% | – | – |
| CCCCNC(=O)n1c(NC(=O)OC)nc2ccccc21 [Benomyl] | 88.55% | 11.45% | 84.32% | 15.68% | 92.74% | 7.26% | 87.7 ± 1.21% | 87.7 ± 1.21% | 87.7 ± 1.21% | 85.4 ± 1.55% | 85.4 ± 1.55% | 85.4 ± 1.55% | 85.38% | 14.62% | 84.83% | 15.17% | 93.03% | 6.97% | – | – |
| CCN(CC)c1ccc(C=O)cc1 [DEAB, Diethylaminobenzaldehyde] | 91.95% | 8.05% | 87.66% | 12.34% | 94.28% | 5.72% | – | – | – | – | – | – | 106.10% | −6.10% | 105.21% | −5.21% | 92.79% | 7.21% | 93.41±2.71% | Luminescence intensity (%), Berberine (10 μM) − [1, 9]: 96.72 ± 0.78 %; Luminescence intensity (%), Linezolid (200 μM) − [1, 10]: 96.72 ± 0.78 %; Luminescence intensity (%), Phenformin (100 μM) − [1, 11]: 96.72 ± 0.78 %; Luminescence intensity (%), Berberine (10 μM) − [2, 9]: 93.41 ± 2.71 %; Luminescence intensity (%), Phenformin (100 μM) − [2, 11]: 93.41 ± 2.71 %; Increase of lactic acid level as compared to the positive control group ([2]; in combination with linezolid, stated in text as an increase): 5.21% |
| CCN(CC)C(=S)SSC(=S)N(CC)CC [Disulfiram] | 75.67% | 24.33% | 80.93% | 19.07% | 90.83% | 9.17% | 86.1 ± 1.66% | 86.1 ± 1.66% | 86.1 ± 1.66% | 93.4 ± 2.64% | 93.4 ± 2.64% | 93.4 ± 2.64% | 69.16% | 30.84% | 87.16% | 12.84% | 78.21% | 21.79% | 93.39 ± 2.64 % | – |
| O=C(O)c1cc(=O)c2ccccc2[nH]1 [Kynurenic acid] | 101.87% | −1.87% | 91.54% | 8.46% | 92.58% | 7.42% | 93.9 ± 1.1% | 93.9 ± 1.1% | 93.9 ± 1.1% | 93.7 ± 1.3% | 93.7 ± 1.3% | 93.7 ± 1.3% | 90.59% | 9.41% | 93.53% | 6.47% | 91.70% | 8.30% | – | – |
